Reference: US6872541B2, “Method and compositions for analysis of pentraxin receptors as indicators of disease” (Coulter International Corp., priority 2001, dated 2005)
Like-named read-outs stand apart in the source and are kept apart here.

Columns and labels:
[1] = system: peripheral blood monocytes; assay: inhibition of bCRP binding to peripheral blood monocytes; conditions: added before staining: 50 μgs CRP, 50 μgs SAP, 10 mM EDTA, 100 μgs PC, human IgG
Description: (§1) Normal peripheral blood and second sample peripheral blood samples were drawn into EDTA containing tubes, unless noted, and stored at room temperature. Blood was stained within 10 hours of collection. […] In addition the removal of the plasma and red cells allowed calcium to be incorporated into the buffer system without subsequent clotting. Lysis was accomplished either by adding a volume of 3 mL of ammonium chloride (Sigma) containing EDTA (Sigma) solution to each 100 μL whole blood for 10 minutes at room temperature or by using the automated T-QPrep Workstation with the ImmunoPrep Reagent System (Coulter Corporation). The ImmunoPrep Reagent System consists of an acid lyse, followed by neutralization and fixation. The lysed blood was centrifuged, the supernatant decanted and the remaining white cell pellet resuspended in 100 μL 0.01M HEPES (Sigma)—0.15M sodium chloride containing 2% Fetal Calf Serum and 2 mM calcium chloride (Sigma), pH 7.4 (HSFC). […] At the end of this time SA-DTAF at a 1:500 dilution (3.6 μg) and 10-20 μL of the appropriate antibody or isotype combination was added for an additional 15 minutes on ice. Cells were then washed with 3 mL HSFC, centrifuged and resuspended to 1 mL in HSFC (0.3% paraformaldehyde was added to ammonium chloride-lysed cells). Stained cells were kept on ice and analyzed within the hour.

PMN = conditions: cited from earlier work
lymphocytes = conditions: cited from earlier work
monocytes = conditions: cited from earlier work
[2] = biological target: CRP receptor (pentraxin-binding moiety) on human monocytes and myelomonocytic cell lines (human); assay: inhibition of bCRP (about 1 µg/mL) binding to THP-1 cells, flow cytometry, non-washed assay
THP-1 cells [3] = assay: inhibition of the binding of bCRP to THP-1 cells; set-up: species or system human; conditions: for effect on binding of bCRP to THP-1 cells: washed assay, 5 mM EDTA in the primary incubation, PC inclusion or exclusion from the reaction mixture
Source text: Staining proceeded using the previously determined optimal non-washed conditions. […] All other staining conditions were as previously described using bHSA as the control.

[4] = biological target: isolated human peripheral blood monocytes; conditions: requirement for calcium, optimal pH 7.4; read-out: dissociation constant; cited from earlier work
[5] = biological target: CRP receptor (pentraxin-binding moiety) on human monocytes and myelomonocytic cell lines (human); assay: 50 µgs purified human SAP added before bCRP staining of peripheral blood monocytes, flow cytometry
Daudi cells = assay: flow cytometric ligand binding assay of bCRP:SA-DTAF on cell lines; set-up: species or system human; conditions: washed assay
Description: (§2) Flow cytometric analysis was performed immediately.

KG-1a cells = assay: as above; set-up: species or system human; conditions: washed assay
Description: as §2

Raji cells = assay: as above; set-up: species or system human
Description: as §2

U937 cells = assay: as above; set-up: species or system human; conditions: washed assay
Description: as §2

HL-60 cells = assay: flow cytometric ligand binding assay of bCRP:SA-DTAF on untreated, DMSO- or PMA-induced cells; set-up: species or system human
Description: as §2
HL-60 was induced towards either the granulocyte or monocyte pathway with DMSO or phorbol-12-myristate-13-acetate (PMA), respectively. To induce the myelocyte differentiation pathway of HL-60 cells into mature myelocytes or monocytes, a concentration of 1.2% DMSO (Baxter Research, Midvale, Utah) included in the media was added to 2.5×10^5 cells/mL for 6 to 14 days. Monocyte differentiation of HL60 cells was promoted by exposing 5×10^5 cells/mL to 16 nM PMA for 48-72 hours prior to harvest. Untreated cells were always harvested along with the treated cells on the day of testing. A control using the same concentration of PMA dissolution media (DMSO) was also monitored. Viability of cells was determined by trypan blue exclusion and was always greater than 95% except for PMA treated cells that consistently were at 84% due to removal of the adherent cells from the flask via scraping. Prior to staining, the cells were washed with 10 mM HEPES, 150 mM sodium chloride buffer, pH 7.4 containing 0.01% sodium azide, 2% heat-inactivated fetal calf serum and 2 mM calcium chloride (HSFC) and resuspended to 1×10^7 cells/mL.

[6] = system: peripheral blood monocytes; assay: flow cytometric binding of bCRP:SA-DTAF to peripheral blood monocytes; set-up: species or system human
Description: (§3) Blood was stained within 10 hours of collection.
This concentration was used for all subsequent staining. Freshly drawn blood was evaluated within 30 to 60 minutes of collection and examined with specific markers identifying cell populations to ensure that the receptor binding pattern was similar to that obtained up to 10 hours later.
To ensure that enough monocytes were collected for the analysis stop counts were set to collect at least 1000 monocyte events based on forward and side scatter parameters.
Two individual donors were evaluated each day. The concentration of SA-DTAF was kept constant at a 1:500 dilution in HSFC (3.6 μgs). Peripheral blood monocyte binding was used to determine the optimal concentration. The percent positive values were expressed relative to the 2% cursor placed on the same population stained with the bHSA negative control. The choice of a 2% negative cursor instead of the RFI was made since a subset population was suspected due to the appearance of both a positive and negative stained monocyte population.
Single color, two or three-color staining was used along with monocyte forward and side scatter parameters to enumerate the percentage of positively stained cells. A negative staining control, bHSA:SA-DTAF was always run to establish the negative cursor placement. […] The samples were then evaluated for any differences in result due to gender, ethnic origin or age. […] No significant pattern or correlation was observed between the ages of 24 to 65 years and the binding of CRP to monocytes.

[7] = system: Granulocytes (CD13+ or CD16+); conditions: gated by scatter and CD13+ or CD16+
Description: as §1, with “Cells were then washed with 3 mL HSFC, centrifuged and resuspended to 1 mL in HSFC (0.3% paraformaldehyde was added to ammonium chloride-lysed cells).” left out, “hour. […]” for “hour.”
(§4) A total of six different normal blood samples were drawn, three individual donors on two separate occasions, and evaluated within 30-60 minutes of collection. […]

[8] = system: T cell populations (CD4+ or CD8+); conditions: lymphocyte scatter
Description: as §1, with “Cells were then washed with 3 mL HSFC, centrifuged and resuspended to 1 mL in HSFC (0.3% paraformaldehyde was added to ammonium chloride-lysed cells).” left out, “hour. […]” for “hour.”
as §4

NK cells (CD56+CD16+) = assay: three color flow cytometric analysis of bCRP binding in fresh peripheral blood; set-up: species or system human; conditions: lymphocyte scatter
Description: as §3

THP-1 cells [9] = system: THP-1 cells
Description: (§5) After 30 minutes on ice the exposed cells were either washed with 3 mL cold HFCS, centrifuged at 500×g for 3 minutes and resuspended in 100 μL cold HSFC, or left alone to compare washed and non-washed systems. Freshly diluted SA-DTAF in HSFC, 100 μL (9 μg SA-DTAF), was then added to the tubes and incubation proceeded for another 15 minutes on ice protected from light. The stained cells were washed using 3 mL cold HSFC, centrifuged at 500×g for 3 minutes and resuspended in 1 mL cold HSFC containing 0.3% paraformaldehyde (Sigma). Flow cytometric analysis was performed immediately.
(§6) The labeling reagent, SA-DTAF, was kept at a constant 1:200 dilution.
(§7) Target mean channels previously determined for cell lines stained with mouse IgG1-FITC were used to maintain consistency of values. The same fluorescent settings for FITC emission (LFL1) were used for all cell lines to enable direct comparison of median fluorescent intensities. […] Since cell lines consist of a relatively uniform population of cells, a Relative Fluorescent Index (RFI) comparing the level of fluorescence to the negative control was used as a more accurate representation of binding levels. The median value for the peak fluorescence (MdX) was used in place of the mean fluorescence intensity so that any skewed population shifts would be captured. […]

MOLT-4 cells = conditions: washed assay
Description: as §5, §6, §7

[10] = biological target: CRP receptor (pentraxin-binding moiety) on human monocytes and myelomonocytic cell lines (human); assay: 50 µgs purified CRP added before bCRP staining of peripheral blood monocytes, flow cytometry

Molecule: human SAP: another pentraxin, human Serum Amyloid P, >99% purity
- inhibition of bCRP binding to peripheral blood monocytes [1]: ~77%

Molecule: aggregated CRP: aggregated CRP of a prior report (Zeller et al., 1986)
- percent of cells binding (PMN; PMN stimulated with PMA): 93%
- percent of cells binding (PMN; resting PMN): approximately 36%
- percent of cells binding (lymphocytes): 8%
- percent of cells binding (monocytes; monocytes): 70%

Molecule: Limulus CRP (from UniProt P06205 25-242) (ligand)
- IC50 [2]: 0.0087 nM

Molecule: O=C(O)CN(CCN(CC(=O)O)CC(=O)O)CC(=O)O [EDTA, reference compound]
- effect on binding of bCRP to THP-1 cells (THP-1 cells [3]): abolished
- inhibition of bCRP binding to peripheral blood monocytes [1]: ~98%

Molecule: CRP: purified human C-reactive protein, pentameric pentraxin of 206 amino acid subunits (SEQ ID NO: 2), used unlabeled as inhibitor
- point at which 50% of the binding was inhibited (amount) (THP-1 cells [3]; non-washed assay, bCRP approximately 1 μg/mL): 0.72 μgs
- inhibition of bCRP binding to peripheral blood monocytes [1]: ~86%

Molecule: radiolabeled CRP: radiolabeled CRP of a prior report (Ballou et al., 1989)
- Kd [4]: ~100 nM

Molecule: CRP fragment 174-185: defined fragment of CRP, amino acid residues 174-185 of SEQ ID NO: 2 (Sigma) (IYLGGPFSPNVL; human CRP)
- inhibition of bCRP binding to THP-1 cells (in words) (THP-1 cells [3]; non-washed assay, fragment 174-185 at 100 μgs (˜128 M solution), not repeated, other fragments up to 200 μgs): appeared to suppress the reaction

Molecule: C[N+](C)(C)CCOP(=O)(O)O [PC, phosphorylcholine, reference compound]
- effect on binding of bCRP to THP-1 cells (THP-1 cells [3]): no significant difference
- inhibition of bCRP binding to peripheral blood monocytes [1]: ~1%

Molecule: human Serum Amyloid P (from UniProt P02743 20-223) (ligand)
- IC50 [2]: 0.15 nM
- percent inhibition [5]: 77%

Molecule: bCRP: purified human C-reactive protein labeled with biotin, detected with streptavidin conjugated fluorescein derivative (SA-DTAF)
- RFI (Relative Fluorescent Index, bCRP MdX / bHSA MdX) (Daudi cells): under 0.9
- RFI (Relative Fluorescent Index, bCRP MdX / bHSA MdX) (KG-1a cells): 1.2
- binding (in words) (Raji cells; B cell line Raji): No binding
- RFI (Relative Fluorescent Index, bCRP MdX / bHSA MdX) (Raji cells; washed assay, Raji): under 0.9
- RFI (Relative Fluorescent Index, bCRP MdX / bHSA MdX) (U937 cells): 1.3
- RFI (HL-60 cells; CTL: HL-60 control for PMA-treated cells (same dilution of DMSO as PMA solvent)): 0.7
- RFI (HL-60 cells; DMSO-treated HL-60): 1.0
- RFI (HL-60 cells; HL-60 treated with PMA, 48 hours (PMA-48)): 1.2
- RFI (HL-60 cells; HL-60 treated with PMA, 72 hours (PMA-72)): 1.5
- RFI (HL-60 cells; untreated HL60): 0.6
- binding to cells (HL-60 cells; untreated or DMSO-treated HL-60 cells, washed and no-wash systems): negative
- binding of bCRP ([6]; monocyte subset, dual CD14+CD16+): bound very little bCRP
- binding of bCRP vs negative bHSA control ([6]; monocytes selected by scatter and CD13, CD14 or CD33): definite fluorescent signal above that of the negative control
- normal range of CRP binding by monocytes ([6]; normal donors): 49-90%
- percentage of binding (monocytes) ([6]; one-step bCRP:SA-DTAF complex): 84.6%
- average percent positive values of bCRP binding, monocytes gated by light scatter ([6]; six freshly drawn normal donors, 30-60 minutes after collection): approximately 70%
- percentage of binding (monocytes) ([6]; two-step method with wash after primary incubation): 85.8%
- binding of bCRP vs negative bHSA control [7]: no binding of bCRP above that of the negative control
- binding of bCRP vs negative bHSA control [8]: no binding of bCRP above that of the negative control
- binding of bCRP vs negative bHSA control (NK cells (CD56+CD16+)): no binding of bCRP above that of the negative control
- RFI (THP-1 cells [9]; THP-1 run at the same time as positive control for the HL-60 induction experiment): 25.1
- RFI (Relative Fluorescent Index, bCRP MdX / bHSA MdX) (THP-1 cells [9]; washed assay, THP-1): 14.5
- RFI (Relative Fluorescent Index, bCRP MdX / bHSA MdX) (MOLT-4 cells): under 0.9
- average percent of monocytes binding (monocytes; other reports): 67±12%

B1: purified human C-reactive protein (ligand)
chain: QTDMSRKAFVFPKESDTSYVSLKAPLTKPLKAFTVCLHFYTELSSTRGYSIFSYATKRQDNEILIFWSKDIGYSFTVGGSEILFEVPEVTVAPVHICTSWESASGIVEFWVDGKPRVRKSLKKGYTVGAEASIILGQEQDSFGGNFEGSQSLVGDIGNVNMWDFVLSPDEINTIYLGGPFSPNVLNWRALKYEVQGEVFTKPQLWP
- percent inhibition [10]: 86%
